Values quoted from earlier work as cited in patent publication US20090298940A1, “All Natural Antifungal And Antimicrobial Composition And Method Thereof” (priority 2008, published 2009).

Tests used:
[1] = when administered internally
[2] = at 20° C.

C/C=C/C=C/C(=O)[O-].[K+] [potassium sorbate, potassium (E,E)-hexa-2,4-dienoate]
tolerability [1]: well tolerated
solubility in water [2]: 58.2%
